Results published in the NIST ThermoML archive (doi:10.1021/je060271a).

Conditions: 343.15 K, Liquid, Vibrating tube method

CCCCC(=O)OCC(COC(=O)CCCC)(COC(=O)CCCC)COC(=O)CCCC [pentaerythritol tetrapentanoate]
Conditions | mass density [kg/m3]
5413.1 kPa | 982.8
5435 kPa | 982.7
5461.9 kPa | 982.8
5505.6 kPa | 982.8
5528.3 kPa | 982.7
5555.3 kPa | 982.9
5578.3 kPa | 982.9
5601.1 kPa | 982.8
5652.8 kPa | 983
6775.7 kPa | 983.7
6868.5 kPa | 983.8
7157.9 kPa | 984.1
7189.4 kPa | 984.1
7222 kPa | 984.1
7362.2 kPa | 984.3
7507.8 kPa | 984.3
7543.3 kPa | 984.3
7586.1 kPa | 984.4
7622 kPa | 984.5
7658.5 kPa | 984.4
7695.9 kPa | 984.5
7740.8 kPa | 984.5
7779.3 kPa | 984.5
7819 kPa | 984.5
7858.9 kPa | 984.6
7901.3 kPa | 984.7
7933.4 kPa | 984.7
7965.2 kPa | 984.7
7997.4 kPa | 984.8
8035.4 kPa | 984.7
8067.7 kPa | 984.8
8100.4 kPa | 984.6
8139.1 kPa | 984.8
8172.2 kPa | 984.9
8205.9 kPa | 984.8
8240 kPa | 984.8
8280.4 kPa | 985
8314.6 kPa | 984.8
8349.6 kPa | 985
8390.6 kPa | 985.1
8425.6 kPa | 985
8461.4 kPa | 985
8504.7 kPa | 985.1
8540.9 kPa | 985
8577.6 kPa | 985.2
8620.4 kPa | 985.2
8653.7 kPa | 985.2
8686.4 kPa | 985.2
8725.9 kPa | 985.3
8759 kPa | 985.2
8793.5 kPa | 985.3
8834.4 kPa | 985.3
8868.3 kPa | 985.2
8902.8 kPa | 985.3
8937.8 kPa | 985.4
8979.2 kPa | 985.4
9014.2 kPa | 985.4
9057.6 kPa | 985.5
9093 kPa | 985.5
9128.9 kPa | 985.5
9165.6 kPa | 985.6
9210.7 kPa | 985.6
9247.8 kPa | 985.6
9284.8 kPa | 985.6
9330.2 kPa | 985.6
9369.1 kPa | 985.6
9408.2 kPa | 985.8
9447.9 kPa | 985.6
9495.3 kPa | 985.9
9536.5 kPa | 985.8
9579.2 kPa | 985.9
9627.1 kPa | 985.8
9659.1 kPa | 985.9
9689.8 kPa | 986
9720.2 kPa | 986
9749.7 kPa | 986
9785.3 kPa | 986
9815.5 kPa | 986.1
9845.4 kPa | 986.1
9881.3 kPa | 986.2
9911.4 kPa | 986.2
9942.4 kPa | 986.2
9979.5 kPa | 986.2
10011 kPa | 986.2
10043 kPa | 986.1
10082 kPa | 986.4
10117 kPa | 986.1
10149 kPa | 986.3
10181 kPa | 986.3
10213 kPa | 986.3
10252 kPa | 986.3
10284 kPa | 986.3
10318 kPa | 986.4
10358 kPa | 986.4
10391 kPa | 986.4
10425 kPa | 986.5
10465 kPa | 986.6
10500 kPa | 986.5
10535 kPa | 986.6
10577 kPa | 986.5
10612 kPa | 986.6
10647 kPa | 986.6
10690 kPa | 986.5
10726 kPa | 986.8
10762 kPa | 986.7
10806 kPa | 986.8
10842 kPa | 986.8
10879 kPa | 986.8
10923 kPa | 986.9
10960 kPa | 986.9
10999 kPa | 986.9
11045 kPa | 986.9
11084 kPa | 987
11122 kPa | 987.1
11162 kPa | 986.9
11209 kPa | 987
11248 kPa | 987.2
11296 kPa | 987.1
11336 kPa | 987.2
11377 kPa | 987.2
11417 kPa | 987.2
11467 kPa | 987.3
11508 kPa | 987.3
11551 kPa | 987.4
11602 kPa | 987.3
11645 kPa | 987.3
11689 kPa | 987.4
11740 kPa | 987.4
11784 kPa | 987.5
11828 kPa | 987.4
11881 kPa | 987.6
11926 kPa | 987.6
11972 kPa | 987.7
12028 kPa | 987.6
12076 kPa | 987.7
12126 kPa | 987.7
12187 kPa | 987.8
12237 kPa | 987.9
12270 kPa | 988
12298 kPa | 987.8
12322 kPa | 987.9
12346 kPa | 987.8
12374 kPa | 988
12398 kPa | 987.9
12423 kPa | 988
12452 kPa | 987.9
12476 kPa | 988.1
12501 kPa | 988.1
12530 kPa | 988
12555 kPa | 988
12580 kPa | 988
12610 kPa | 988
12636 kPa | 988
12660 kPa | 988.1
12691 kPa | 988.1
12717 kPa | 988.2
12742 kPa | 988.1
12773 kPa | 988.2
12799 kPa | 988.2
12824 kPa | 988.3
12856 kPa | 988.3
